Legend:
[1] = test system: high-fat diet-induced obesity model mice; experiment: Sirius Red staining and collagen amount in mouse tissue; assay type: in vivo; conditions: HPH-15 10 mg/kg or 100 mg/kg, metformin 300 mg/kg, orally 28 days, Western blotting
Protocol: High-fat diet-induced obesity model mice were prepared in the same manner as in Example 7. Then, HPH-15 (10 mg/kg or 100 mg/kg, […]) dissolved in olive oil or metformin (300 mg/kg, […]) was orally administered once a day for 28 days. Olive oil alone was administered as a control. After 28 days of administration of each, the liver and the epididymal fat of the high-fat diet-induced obesity model mice were stained with Sirius Red and observed using a microscope.
Further, high-fat diet-induced obesity model mice were prepared in the same manner as in Example 7. Then, HPH-15 (10 mg/kg or 100 mg/kg, […]) dissolved in olive oil or metformin (300 mg/kg, […]) was orally administered once a day for 28 days. Olive oil alone was administered as a control. After 28 days of administration of each, equal amounts (50 mg) of tissue pieces were collected from the liver and epididymal adipose tissues of the high-fat diet-induced obesity model mice, transferred to 1.5 mL Eppendorf tubes, and washed twice with PBS. After washing, the tissue pieces were transferred to BIOMASHER II, […] of RIPA buffer was added, and the tissue pieces were homogenized on ice. After homogenization, the tissue pieces were centrifuged (10,000 rpm, 4° C., 5 min) and the supernatant was obtained as a protein solution. The concentration of the proteins thus obtained was corrected based on the protein concentration measured by the BCA method using bicinchoninic acid (BCA), thereby preparing samples for Western blotting. Western blotting was quantified using ImageJ to calculate the amount of collagen.

[2] = test system: high-fat diet-induced obesity model mice; experiment: H&E staining of mouse tissue; assay type: in vivo; conditions: metformin 300 mg/kg orally 28 days; compared to control
Protocol: High-fat diet-induced obesity model mice were prepared in the same manner as in Example 7. Note that the high-fat diet-induced obesity model mice develop liver damage and are thus used as a liver disease model. Then, HPH-15 (10 mg/kg or 100 mg/kg, […]) dissolved in olive oil or metformin (300 mg/kg, […]) was orally administered once a day for 28 days. Olive oil alone was administered as a control. After administration of each for 28 days, the liver, epididymis, and muscle of the high-fat diet-induced obesity model mice were stained with H&E and observed using a microscope. The results of H&E staining of the liver are shown in FIG. 12A, the results of H&E staining of the epididymis are shown in FIG. 12B, and the results of H&E staining of the muscle are shown in FIG. 12C.

## CN(C)C(=N)N=C(N)N [metformin, reference compound]
[1]
  amount of collagen in the epididymal adipose tissue: no collagen-reducing effect was confirmed
  amount of collagen in the liver tissue: no collagen-reducing effect was confirmed
[2]
  fat area (H&E): only slightly reduced the fat area
